Where “and” joins values, the source holds several entries; their conditions need not be identical. Equal values may be shown once.
Tested on: recurrent or metastatic (R/M) adenoid cystic carcinoma (ACC)
Experiment: Phase 2 single-arm study of rivoceranib in R/M ACC: response, DoR, PFS, TTP per RECIST V1.1
Assay type: in vivo, human
Description: Overall design: An ongoing Phase 2, multicenter, open-label, single-arm study was designed to evaluate the efficacy and safety of rivoceranib in patients with recurrent or metastatic (R/M) adenoid cystic carcinoma (ACC) of all anatomic sites of origin. The study was composed of an initial screening phase (up to 28 days), a treatment phase, and a follow-up phase.
Objectives: Primary objectives were to evaluate safety & tolerability, efficacy by objective response rate (ORR), best overall response (BOR), time to response, duration of response, disease control rate, and duration of disease control. Secondary objectives were to evaluate efficacy as measured by overall survival, progression-free survival and event-free survival. The primary efficacy endpoint was the ORR, defined as the proportion of patients who achieved confirmed complete response (CR) or partial response (PR) per Response Evaluation Criteria in Solid Tumors (RECIST) Version 1.1 (V1.1). The secondary efficacy endpoints were duration of response (DoR) assessed by the investigator and a blinded independent review committee (BIRC), progression-free survival (PFS) assessed at 6 months, 12 months, and 2 years by investigator and BIRC, Time to Progression (TTP) assessed by investigator and BIRC, and overall survival (OS) assessed at 1 and 2 years. Exploratory efficacy endpoints include ORR per CHOI response criteria (based on the journal article, Choi et al., Correlation of computed tomography and positron emission tomography in patients with metastatic gastrointestinal stromal tumor treated at a single institution with imatinib mesylate: proposal of new computed tomography response criteria. J Clin Oncol. 2007; 25(13): 1753-1759) by a blinded independent review […] (BIRC) and disease control rate (DCR) per RECIST V1.1 by Investigator and BIRC. Except for CHOI response criteria, all response endpoints were assessed per RECIST V1.1 by Investigator and BIRC.
Patients: The study was conducted at 11 study sites in the USA and South Korea. A total of 80 patients were enrolled and received at least 1 dose of study drug (rivoceranib). Fifty-three patients were enrolled in the USA and 27 patients were enrolled in Korea. Eligible patients were 18 years or older and were required to have histologically or cytologically confirmed R/M ACC of any anatomic location not amenable to curative surgery or radiotherapy. Due to the indolent nature of the disease, patients were required to have evidence of disease progression by RECIST V1.1 within the 6 months prior to study entry, evidenced by: ≥20% increase in radiologically or clinically measurable lesions or appearance of new lesions. Patients were required to have at least 1 measurable target lesion by RECIST V1.1. There were no restrictions on prior systemic therapies. Patients were permitted to have prior VEGFR TKI exposure if dosage was discontinued within 5 half-lives prior to rivoceranib treatment. The patients were permitted if they have an Eastern Cooperative Oncology Group (ECOG) performance status of 0 or 1. Patients with treated central nervous system metastases were permitted if they were stable for four weeks prior to study treatment. Eligible patients had documented primary diagnosis of solid tumor cancer of ACC for which anti-VEGFR-2 targeted therapy could be applicable. The majority of patients had primary tumors in the major (33.8%) or minor (58.8%) salivary glands; 6 patients (7.5%) had primary tumors in other locations: lung, breast, trachea, Cowper's gland, intracranial temporal lobe and lymph node. Median time from original ACC diagnosis was 69.62 months. The majority of patients (92.5%) had metastatic disease.
Dose determination: Enrolled patients initiated treatment with rivoceranib 700 mg daily (QD). Up to 3 levels of dose reduction for toxicity were permitted: 500 mg QD, 300 mg QD and 200 mg QD. Patients received treatment until disease progression, unacceptable toxicity, death or withdrawal of consent to treatment. […]

[1] = RECIST V1.1, BIRC, 700 mg QD start
[2] = RECIST V1.1, BIRC, Total N = 73, 700 mg QD start
[3] = RECIST V1.1, BIRC, Total N = 73, Kaplan-Meier, 700 mg QD start
[4] = RECIST V1.1, BIRC, VEGFRi-naïve N = 60, 700 mg QD start
[5] = RECIST V1.1, BIRC, VEGFRi-naïve N = 60, Kaplan-Meier, 700 mg QD start
[6] = RECIST V1.1, BIRC, VEGFRi-treated N = 13, 700 mg QD start
[7] = RECIST V1.1, BIRC, VEGFRi-treated N = 13, Kaplan-Meier, 700 mg QD start
[8] = RECIST V1.1, Investigator, 700 mg QD start
[9] = RECIST V1.1, Investigator, Systemic therapy-naïve N = 29, 700 mg QD start

Question: What does the source list for `N#CC1(c2ccc(NC(=O)c3cccnc3NCc3ccncc3)cc2)CCCC1` [Rivoceranib, N-[4-(1-cyanocyclopentyl)phenyl]-2-{[(pyridin-4-yl)methyl]amino}pyridine-3-carboxamide]?
Answer: remaining (non-ORR) patients who had a tumor size reduction (700 mg QD start): about 85%; median PFS (Kaplan-Meier, patients previously treated with systemic therapy, 700 mg QD start): 8.9 months; median PFS (Kaplan-Meier, patients without any prior systemic therapy, 700 mg QD start): 13.7 months; ORR based on patients assessed as responders by either Investigator or BIRC (RECIST V1.1, 15 out of 73 patients, 700 mg QD start): 20.5%; estimated TTP rate at 6 months [1]: 80.7%; estimated TTP rate at 9 months [1]: 57.3%; estimated TTP rate at 12 months [1]: 41%; BOR: Complete Response [2]: 0%; BOR: Not Evaluable [2]: 1 (1.4) %; BOR: Partial Response [2]: 7 (9.6) %; BOR: Progressive Disease [2]: 5.5% and 4 (5.5) %; BOR: Stable Disease [2]: 61 (83.6) %; DCR (disease control rate, CR, PR or SD ≥3 months) [2]: 65.8% and 64.4% and 48 (65.8) %; Median TTP (95% CI) [2]: 9.3 (8.5-13.6) months; ORR (objective response rate) [2]: 9.6% and 7 (9.6) %; PFS landmark 6-months, % (95% CI) [2]: 80.8 (68.5-88.6) %; PFS landmark 12-months, % (95% CI) [2]: 38.2 (25.0-51.3) %; DoR 25th percentile [3]: 5.5 months; DoR 75th percentile [3]: 8.3 months; DoR Median (95% CI) [3]: 7.2 months and 7.2 (3.5, 8.4) months; Median PFS (95% CI) [3]: 9.2 months and 9.2 (8.0, 12.9) months; BOR: Complete Response [4]: 0%; BOR: Not Evaluable [4]: 1 (1.7) %; BOR: Partial Response [4]: 5 (8.3) %; BOR: Progressive Disease [4]: 3 (5.0) %; BOR: Stable Disease [4]: 51 (85) %; DCR (disease control rate, CR, PR or SD ≥3 months) [4]: 39 (65.0) %; Median PFS (95% CI) [4]: 9.3 (8.0-13.7) months; Median TTP (95% CI) [4]: 10.8 (8.5-13.8) months; ORR (objective response rate) [4]: 8.5% and 5 (8.3) %; PFS landmark 6-months, % (95% CI) [4]: 80.3 (66.3-88.9) %; PFS landmark 12-months, % (95% CI) [4]: 40.4 (25.6-54.6) %; DoR 25th percentile [5]: 5.4 months; DoR 75th percentile [5]: 8.3 months; BOR: Complete Response [6]: 0%; BOR: Not Evaluable [6]: 0%; BOR: Partial Response [6]: 2 (15.4) %; BOR: Progressive Disease [6]: 1 (7.7) %; BOR: Stable Disease [6]: 10 (76.9) %; DCR (disease control rate, CR, PR or SD ≥3 months) [6]: 9 (69.2) %; Median PFS (95% CI) [6]: 8.9 (5.3-12.9) months; Median TTP (95% CI) [6]: 8.9 (5.3-12.9) months; PFS landmark 6-months, % (95% CI) [6]: 83.1 (47.2-95.5) %; PFS landmark 12-months, % (95% CI) [6]: 26.0 (4.3-56.2) %; DoR 25th percentile [7]: 5.5 months; DoR 75th percentile [7]: 7.1 months; DoR Median (95% CI) [7]: 6.3 (5.5, 7.1) months; estimated PFS rate at 9 months (RECIST V1.1, BIRC, efficacy evaluable, 700 mg QD start): 53.5%; estimated TTP rate at 6 months [8]: 76.2%; estimated TTP rate at 9 months [8]: 57.0%; estimated TTP rate at 12 months [8]: 43.7%; Median time to response (RECIST V1.1, Investigator, 11 responders): 57.0 days; BOR: Complete Response [9]: 0%; BOR: Not Evaluable [9]: 0%; BOR: Partial Response [9]: (20.7) %; BOR: Progressive Disease [9]: (10.3) %; BOR: Stable Disease [9]: (69.0) %

— patent US20260041677A1, “COMPOSITIONS AND METHODS FOR TREATING ADENOID CYSTIC CARCINOMA” (ELEVAR THERAPEUTICS, INC., priority 2022, published 2026)
